Source: patent publication US20100015635A1, “IMMOBILISATION OF FLUORESCENT PROTEINS” (priority 2006, published 2010)

Columns and labels:
[1] = Control: emission of mixture of BSA-Atto390 and Hc-Cy5 during deoxygenation, excitation 280 nm; conditions: solution mixture
Source text: To rule out that the changes in dye fluorescence might be due to a specific quenching by molecular oxygen, a mixture of Atto390 labelled bovine serum albumin (BSA) and Hc-Cy5 was deoxygenated while recording emission spectra from 300 to 750 nm upon excitation at 280 nm. The applied labels emit at different wavelengths, therefore permitting the simultaneous observation of each individual conjugate. […] With the labels exchanged, the reverse was observed. From this it can be concluded that the variations in label fluorescence correlate with the binding of O2 to the labelled hemocyanin. […] Similar observations were made for Ty.

[2] = Sol-gel controls: O2 dependence of non-binding species, leaking, storage stability; format: physicochemical; conditions: individually encapsulated in a sol-gel matrix
Source text: [19]. The buffer solution surrounding the quartz slides was checked for leaking of the labeled protein out of the matrix. […] As already reported, the mechanical strength of silica gels often prevents the leaking of biomolecules. 3) Tryptophan fluorescence has been used to study stability and flexibility of proteins upon entrapment.

[3] = Switching ratio of Trp/label emission of tyrosinase (Ty) on deoxygenation, excitation 280 nm; set-up: species or system Streptomyces antibioticus; conditions: emission of Trp or of N-terminal dye label on Ty, excitation at 280 nm
Protocol: To illustrate this Example, Ty from the soil bacterium Streptomyces antibiotius was selected.
S.c. Ty contains 12 Trp residues on a total of 271 amino-acids (4.4% against ˜1% on average), which cluster around the type-3 centre. […] In an air-saturated solution (0.26 mM O2), practically all protein occurs in the oxygenated form (see FIG. 2A). Upon complete deoxygenation, the Trp fluorescence increases by a factor of 2.7 while the shape and position of the emission band remain unchanged. For the C.a. Hc samples, this factor, further referred to as the switching ratio SR (=Fred/Foxy), amounts to 2.2.
Both Hc and Ty were labelled at their N-terminus with each of the five dyes. […] The peak around […] is a second-order artefact. In a solution containing dye and protein separately (not linked) this peak (280 nm) was missing. The second order artefact is due to higher orders of light being allowed through the monochromator. The artefact can be excluded by placing a cut-off filter in the detection path that allows through light only beyond a certain wavelength (for example […]).
In all cases, an increase in label emission was observed after deoxygenating the sample (FIG. 4A). […] The Cy3 fluorescence is specific for the labelled protein, while the Trp emission derives mainly (>95%) from unlabelled Hc. […]

## BSA-Atto390: Atto390 labelled bovine serum albumin, control
[1]
  dependence of label emission on [O2]: does not

## bovine serum albumin labeled with Cy5: BSA labeled with Cy5 encapsulated in a sol-gel matrix, control
[2]
  dependence of fluorescence intensity on [O2]: neither unreacted Cy5 nor bovine serum albumin labeled with Cy5, both individually encapsulated in a sol-gel matrix, depended on the [O2]

B1: Ty: tyrosinase from the soil bacterium Streptomyces antibiotius (protein, UniProt P07524 2-273, looked up)
Tyrosinase: TVRKNQASLTAEEKRRFVAALLELKRTGRYDAFVTTHNAFILGDTDNGERTGHRSPSFLPWHRRFLLEFERALQSVDASVALPYWDWSADRSTRSSLWAPDFLGGTGRSRDGQVMDGPFAASAGNWPINVRVDGRTFLRRALGAGVSELPTRAEVDSVLAMATYDMAPWNSGSDGFRNHLEGWRGVNLHNRVHVWVGGQMATGVSPNDPVFWLHHAYIDKLWAEWQRRHPSSPYLPGGGTPNVVDLNETMKPWNDTTPAALLDHTRHYTFDV
[3]
  SR Tyr (switching ratio Fred/Foxy): 2.7
